Data taken from US20240368173A1, “TRICYCLIC GPR65 MODULATORS” (PATHIOS THERAPEUTICS LIMITED, priority 2021, published 2024).
Like-named read-outs stand apart in the source and are kept apart here.

Target: human recombinant GPR65 (Homo sapiens, UniProt Q8IYL9)
Experiment: Human GPR65 cAMP HTRF antagonist assay
Assay type: cell-based
In short: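 1321N1 astrocytoma cells stably expressing hrGPR65, with IBMX and EDTA, were preincubated with compound 30 min at room temperature, then acid-activated at assay pH 7.2 (control pH 7.9) for 30 min. cAMP read by HTRF (665/620 nm ratio); IC50 from 4-parameter fit normalised to high/low controls.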

[1] = 1321N1-hrGPR65 cells, cAMP HTRF, assay pH 7.2, read-out: hGPR65 IC50 (Activity of selected compounds according to the invention)

Chain of human recombinant GPR65 (Q8IYL9 whole entry): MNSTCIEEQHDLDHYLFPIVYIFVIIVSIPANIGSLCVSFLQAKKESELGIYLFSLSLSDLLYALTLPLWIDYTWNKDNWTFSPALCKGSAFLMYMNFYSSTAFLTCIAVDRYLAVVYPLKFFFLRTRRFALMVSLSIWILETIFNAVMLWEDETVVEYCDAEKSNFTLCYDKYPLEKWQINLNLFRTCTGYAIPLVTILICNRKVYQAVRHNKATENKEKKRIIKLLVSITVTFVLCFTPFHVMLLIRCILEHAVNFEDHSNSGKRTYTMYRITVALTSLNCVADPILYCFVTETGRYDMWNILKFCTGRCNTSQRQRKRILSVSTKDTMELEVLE

Row | SMILES | IC50 [nM] | IC50 [1] [nM]
1 | O=C(Nc1cc(Cl)c(Cl)cc1F)N1[C@H]2CC[C@@H]1c1c[nH]c(=O)nc1C2 [Compound 22, (5R,8S)-N-(4,5-Dichloro-2-fluorophenyl)-2-oxo-3,5,6,7,8,9-hexahydro-2H-5,8-epiminocyclohepta[d]pyrimidine-10-carboxamide] | < 500 | –
2 | O=C(Nc1cc(F)c(-c2ccc(C(F)(F)F)nc2)cc1F)N1[C@H]2CC[C@@H]1c1n[nH]c(=O)cc1C2 [Compound 286, (6S,9R)-N-(2,5-Difluoro-4-(6-(trifluoromethyl)pyridin-3-yl)phenyl)-3-oxo-3,5,6,7,8,9-hexahydro-2H-6,9-epiminocyclohepta[c]pyridazine-10-carboxamide] | < 500 | –
3 | O=C(Nc1cc(Br)c(Cl)cc1F)N1C2CCC1c1n[nH]c(=O)cc1C2 (racemic) [Compound 7, (±)-N-(5-Bromo-4-chloro-2-fluorophenyl)-3-oxo-3,5,6,7,8,9-hexahydro-2H-6,9-epiminocyclohepta[c]pyridazine-10-carboxamide] | < 500 | –
4 | COc1cnccc1-c1cc(F)c(NC(=O)N2[C@H]3CC[C@@H]2c2c[nH]c(=O)cc2C3)cc1Cl [Compound 298, (6S,9R)-N-(5-Chloro-2-fluoro-4-(3-methoxypyridin-4-yl)phenyl)-3-oxo-3,5,6,7,8,9-hexahydro-2H-6,9-epiminocyclohepta[c]pyridine-10-carboxamide] | 500 to 5000 | –
5 | CS(=O)(=O)c1cncc(-c2cc(F)c(NC(=O)N3[C@H]4CC[C@@H]3c3n[nH]c(=O)cc3C4)cc2Cl)c1 [Compound 122, (6S,9R)-N-(5-Chloro-2-fluoro-4-(5-(methylsulfonyl)pyridin-3-yl)phenyl)-3-oxo-3,5,6,7,8,9-hexahydro-2H-6,9-epiminocyclohepta[c]pyridazine-10-carboxamide] | – | 500 to 5000
6 | O=C(Nc1cc(Cl)c(OCc2ccccc2)cc1F)N1[C@H]2CC[C@@H]1c1n[nH]c(=O)cc1C2 [Compound 237, (6S,9R)-N-(4-(Benzyloxy)-5-chloro-2-fluorophenyl)-3-oxo-3,5,6,7,8,9-hexahydro-2H-6,9-epiminocyclohepta[c]pyridazine-10-carboxamide] | < 500 | –
7 | CNCCCOc1cnc(F)c2c1[C@H]1CC[C@@H](C2)N1C(=O)Nc1cc(Cl)c(C(F)(F)F)cc1F [Compound 161, (5R,8S)—N-(5-Chloro-2-fluoro-4-(trifluoromethyl)phenyl)-1-fluoro-4-(3-(methylamino)propoxy)-6,7,8,9-tetrahydro-5H-5,8-epiminocyclohepta[c]pyridine-10-carboxamide] | – | 500 to 5000
8 | O=C(Nc1ccc(Br)c(Cl)c1)N1C2CCC1c1n[nH]c(=O)cc1C2 (racemic) [Compound 4, (±)-N-(4-Bromo-3-chlorophenyl)-3-oxo-3,5,6,7,8,9-hexahydro-2H-6,9-epiminocyclohepta[c]pyridazine-10-carboxamide] | < 500 | –
9 | O=C(Nc1cc(Cl)c(-c2ccncc2)cc1F)N1[C@H]2CC[C@@H]1c1n[nH]c(=O)cc1C2 [Compound 173, (6S,9R)-N-(5-Chloro-2-fluoro-4-(pyridin-4-yl)phenyl)-3-oxo-3,5,6,7,8,9-hexahydro-2H-6,9-epiminocyclohepta[c]pyridazine-10-carboxamide] | < 500 | –
10 | O=C1Cc2ccc(-c3cc(F)c(NC(=O)N4[C@H]5CC[C@@H]4c4n[nH]c(=O)cc4C5)cc3Cl)cc2N1 [Compound 153, (6S,9R)-N-(5-Chloro-2-fluoro-4-(2-oxoindolin-6-yl)phenyl)-3-oxo-3,5,6,7,8,9-hexahydro-2H-6,9-epiminocyclohepta[c]pyridazine-10-carboxamide] | < 500 | –
11 | O=C(Nc1cc(Cl)c(-c2ccc(OC(F)F)nc2)cc1F)N1[C@H]2CC[C@@H]1c1n[nH]c(=O)cc1C2 [Compound 315, (6S,9R)-N-(5-Chloro-4-(6-(difluoromethoxy)pyridin-3-yl)-2-fluorophenyl)-3-oxo-3,5,6,7,8,9-hexahydro-2H-6,9-epiminocyclohepta[c]pyridazine-10-carboxamide] | < 500 | –
